Assay results reported in patent US20230099696A1, “NANO-COMPOSITE MICROPARTICLES OF POLYMYXIN” (Purdue Research Foundation, priority 2020, published 2023).

Legend:
[1] = tested on: Staphylococcus aureus (SA); conditions: against SA; cited from earlier work
[2] = Crystallinity by powder X-ray diffraction (PXRD); type: physicochemical; conditions: state of Iva, FIG. 1B, 3A, 3B
Description: Crystalline state of the optimal Iva-BSA-NPs and the physical mixture (PM) of BSA and Iva were characterized by the powder X-ray diffraction (PXRD, SmartLabTM diffractometer, Rigaku Americas, Austin, USA) with Cu-Kα radiation source, operating at 40 kV and 44 mA . The scanning 2θ range was set as 5 to 60° with a scanning rate of 5°/min ([…] et al., 2018a). Crystalline state of co-delivery microparticles and the PM of BSA, Iva, Col and L-leucine were characterized by PXRD with the similar method as to detect the optimal nanoparticles.

[3] = tested on: Pseudomonas aeruginosa (PA); conditions: when combined with polymyxin B; cited from earlier work

crystalline state (PXRD) [2]: crystalline
Structure (SMILES): CC(C)(C)c1cc(C(C)(C)C)c(NC(=O)c2c[nH]c3ccccc3c2=O)cc1O [Iva, Ivacaftor]
MIC [1]: 8~32 mg/L
antimicrobial activity against PA [3]: significant antimicrobial activity
